The results in this text go back to ChEMBL document CHEMBL4011581, “Interference with bile salt export pump function is a susceptibility factor for human liver injury in drug development” (Toxicol Sci, 2010).

As a reminder, the IC50 is the concentration at which inhibition is half-maximal.

Where a name gives a salt, the structure may show the parent alone.

The first data set deals with T1, Bile salt export pump (Homo sapiens, UniProt O95342). Briefly: Inhibition of human BSEP expressed in fall armyworm sf9 cell plasma membrane vesicles assessed as reduction in vesicle-associated [3H]-taurocholate transport preincubated for 10 mins prior to ATP addition measured after 15 mins in presence of [3H]-taurocholate by topcount based membrane vesicle transport assay. The format is ADME.
As for `CC(C)C(=O)Nc1ccc([N+](=O)[O-])c(C(F)(F)F)c1` [FLUTAMIDE], the IC50 is more than 135 µM.

Regarding `CC1(COc2ccc(CC3SC(=O)NC3=O)cc2)CCCCC1` (stereo not given) [CIGLITAZONE], the IC50 turned out to be 37.8 µM.

Take `CCN(CC)CCOc1ccc2c(c1)C(=O)c1cc(OCCN(CC)CC)ccc1-2` [TILORONE]: the IC50 is more than 135 µM.

Regarding `CN(C)CCC=C1c2ccccc2CCc2ccccc21` [AMITRIPTYLINE], the IC50 is more than 135 µM.

Take `Cn1c(=O)c2[nH]cnc2n(C)c1=O` [THEOPHYLLINE]: the IC50 is more than 135 µM.

Consider `OCCN1CCN(CCCN2c3ccccc3Sc3ccc(Cl)cc32)CC1` [PERPHENAZINE], for which the IC50 is more than 135 µM.

For `Clc1ccc2nsnc2c1NC1=NCCN1` [TIZANIDINE], the IC50 was more than 135 µM.

Turning to `C[C@@H]1CCC[C@H](C)N1NC(=O)c1ccc(Cl)c(S(N)(=O)=O)c1` [CLOPAMIDE], the IC50 was more than 135 µM.

On to `CC(C)/N=c1\cc2n(-c3ccc(Cl)cc3)c3ccccc3nc-2cc1Nc1ccc(Cl)cc1` [CLOFAZIMINE], for which the IC50 turned out to be 12.9 µM.

As for `CNCCC=C1c2ccccc2CCc2ccccc21` [NORTRIPTYLINE], the IC50 was more than 135 µM.

With `CC(=O)[C@H]1[C@H](C#N)C[C@H]2[C@@H]3CC=C4CC(O)CC[C@]4(C)[C@H]3CC[C@@]21C` (stereo not given in full), the IC50 was more than 135 µM.

For `CS(=O)(=O)c1ccc(C2=C(c3ccccc3)C(=O)OC2)cc1` [ROFECOXIB], the IC50 was more than 135 µM.

In the case of `CC(C)(C)NC(=O)[C@H]1CC[C@H]2[C@@H]3CC[C@H]4NC(=O)C=C[C@]4(C)[C@H]3CC[C@]12C` [FINASTERIDE], the IC50 came out at 28.2 µM.

With `C#CCN(C)[C@H](C)Cc1ccccc1` [SELEGILINE HYDROCHLORIDE], the IC50 was more than 135 µM.

`CCC1=C(C)CN(C(=O)NCCc2ccc(S(=O)(=O)NC(=O)N[C@H]3CC[C@H](C)CC3)cc2)C1=O` [GLIMEPIRIDE]: the IC50 is 15.7 µM.

Turning to `NNC(=O)c1ccncc1` [ISONIAZID], the 50% inhibitory concentration (IC50) is more than 135 µM.

Take `Cc1onc(-c2c(Cl)cccc2Cl)c1C(=O)N[C@@H]1C(=O)N2[C@@H]1SC(C)(C)[C@@H]2C(=O)O` [DICLOXACILLIN]: the IC50 lay within 45 to 60 µM.

On to `CCC(C)n1ncn(-c2ccc(N3CCN(c4ccc(OCC5COC(Cn6cncn6)(c6ccc(Cl)cc6Cl)O5)cc4)CC3)cc2)c1=O` (stereo not given) [ITRACONAZOLE], for which the IC50 is 18 µM.

With `O=P1(N(CCCl)CCCl)NCCCO1` (stereo not given) [CYCLOPHOSPHAMIDE ANHYDROUS], the IC50 is more than 135 µM.

Consider `CNS(=O)(=O)Cc1ccc2[nH]cc(CCN(C)C)c2c1`, for which the 50% inhibitory concentration (IC50) was more than 135 µM.

With `Cc1noc(NS(=O)(=O)c2ccc(N)cc2)c1C` [SULFISOXAZOLE], the IC50 is more than 135 µM.

Regarding `Cc1ccc(C(=O)Nc2ccc(S(=O)(=O)O)c3cc(S(=O)(=O)O)cc(S(=O)(=O)O)c23)cc1NC(=O)c1cccc(NC(=O)Nc2cccc(C(=O)Nc3cc(C(=O)Nc4ccc(S(=O)(=O)O)c5cc(S(=O)(=O)O)cc(S(=O)(=O)O)c45)ccc3C)c2)c1` [SURAMIN], the IC50 was more than 135 µM.

In the case of `CC(=O)Nc1ccc(O)cc1` [ACETAMINOPHEN], the IC50 is more than 135 µM.

As for `CS(=O)(=O)OCCCCOS(C)(=O)=O` [BUSULFAN], the IC50 was more than 135 µM.

Consider `CC(C)NNC(=O)c1ccncc1` [IPRONIAZID], for which the IC50 was more than 135 µM.

In the case of `CC[C@@]1(O)C(=O)OCc2c1cc1n(c2=O)Cc2cc3ccccc3nc2-1` [CAMPTOTHECIN], the IC50 was more than 135 µM.

Take `Cc1ncc2n1-c1ccc(Cl)cc1C(c1ccccc1F)=NC2` [MIDAZOLAM]: the IC50 worked out at 41.7 µM.

For the compound `CC[C@H]1CN2CCc3cc(OC)c(OC)cc3[C@@H]2C[C@@H]1C[C@H]1NCCc2cc(OC)c(OC)cc21` [EMETINE], the IC50 was more than 135 µM.

`C[C@H]1C[C@H]2[C@@H]3CCC4=CC(=O)C=C[C@]4(C)[C@@]3(F)[C@@H](O)C[C@]2(C)[C@@]1(O)C(=O)CO` [BETAMETHASONE]: the IC50 is more than 135 µM.

In the case of `CO[C@H]1/C=C/O[C@@]2(C)Oc3c(C)c(O)c4c(O)c(c(/C=N/N5CCN(C)CC5)c(O)c4c3C2=O)NC(=O)/C(C)=C\C=C\[C@H](C)[C@H](O)[C@@H](C)[C@@H](O)[C@@H](C)[C@H](OC(C)=O)[C@@H]1C` [RIFAMPIN], the IC50 amounted to 25.3 µM.

Another data set addresses T1, Bile salt export pump. Briefly: Inhibition of human BSEP expressed in fall armyworm sf9 cell membrane vesicles assessed as reduction in ATP-dependent [3H]-taurocholic acid uptake preincubated for 30 mins prior to [3H]-taurocholic acid addition by liquid scintillation counting. Type of data set: ADME.
For the compound `CC(C)C(=O)Nc1ccc([N+](=O)[O-])c(C(F)(F)F)c1` [FLUTAMIDE], the IC50 is 50 µM.

The target of a further data set is T1, Bile salt export pump. The data set can be described thus: Inhibition of human BSEP expressed in fall armyworm sf9 cell membrane vesicles assessed as reduction in ATP-dependent [3H]-taurocholic acid uptake at 100 uM preincubated for 30 mins prior to [3H]-taurocholic acid addition by liquid scintillation counting relative to control. The format is ADME.
`CC(C)C(=O)Nc1ccc([N+](=O)[O-])c(C(F)(F)F)c1` [FLUTAMIDE]: the Imax lay in the range of 40 to 50%.

A further data set addresses T1, Bile salt export pump. The data set can be described thus: Inhibition of human BSEP expressed in fall armyworm sf9 cell membrane vesicles assessed as reduction in vesicle-associated [3H]-taurocholate at 133 uM preincubated for 10 mins prior to ATP addition measured after 15 mins in presence of [3H]-taurocholate by topcount based membrane vesicle transport assay relative to control. Type of data set: ADME.
Consider `CC(C)C(=O)Nc1ccc([N+](=O)[O-])c(C(F)(F)F)c1` [FLUTAMIDE], for which the Imax is 50%.

In another data set the target is T1, Bile salt export pump. The data set can be described thus: Inhibition of BSEP in human hepatocytes assessed as reduction in biliary excretion of [3H]-taurocholate in cell lysates after 15 mins by liquid scintillation counting. Type of data set: ADME, cell-based, Lysate.
As to `CC(C)C(=O)Nc1ccc([N+](=O)[O-])c(C(F)(F)F)c1` [FLUTAMIDE], the IC50 stood at 75 µM.

The target of the next data set is T1, Bile salt export pump. Briefly: Inhibition of BSEP in human hepatocytes assessed as reduction in biliary excretion of [3H]-taurocholate in cell lysates at 10 to 100 uM after 15 mins by liquid scintillation counting relative to control. Type of data set: ADME, cell-based, Lysate.
As to `CC(C)C(=O)Nc1ccc([N+](=O)[O-])c(C(F)(F)F)c1` [FLUTAMIDE], the Imax worked out at 20%.
